In patent US20120053053A1, “PYRIMIDINE DERIVATIVES AND THEIR USE AS HERBICIDES” (SYNGENTA CROP PROTECTION, LLC, priority 2009, published 2012):

Legend:
Assay type in all cases: in vivo
[1] = system: Echinochloa crus-galli (ECHCG); test: Post-emergence biological efficacy (percentage damage); conditions: Echinochloa crus-galli, 312 h, dose 1,000 g/ha, evaluated after 13 days, 100=total damage, 0=no damage
Method: (§1) Seeds of Alopecurus myosuroides (ALOMY), Setaria faberi (SETFA), Echinochloa crus-galli (ECHCG), Solanum nigrum (SOLNI), Amaranthus retoflexus (AMARE) and Ipomea hederaceae (IPOHE) were sown in standard soil in pots. After cultivation for 8 days under controlled conditions in a glasshouse (at 24/16° C., day/night; 14 hours light; 65% humidity), the plants were sprayed with an aqueous spray solution derived from the formulation of the technical active ingredient in acetone/water (50:50) solution containing 0.5% Tween 20 (polyoxyethylene sorbitan monolaurate, CAS RN 9005-64-5) to give a final dose of 250 or 1000 g/ha of test compound. The test plants were then grown on under controlled conditions in a glasshouse (at 24/16° C., day/night; 14 hours light; 65% humidity) and watered twice daily. After 13 days the test was evaluated (100=total damage to plant; 0=no damage to plant).

Solanum nigrum (SOLNI) [2] = test: as above; conditions: Solanum nigrum, 312 h, dose 1,000 g/ha, evaluated after 13 days, 100=total damage, 0=no damage
Method: as §1

[3] = system: Alopecurus myosuroides (ALOMY); test: as above; conditions: Alopecurus myosuroides, 312 h, dose 1,000 g/ha, evaluated after 13 days, 100=total damage, 0=no damage
Method: as §1

Setaria faberi (SETFA) [4] = test: as above; conditions: Setaria faberi, 312 h, dose 1,000 g/ha, evaluated after 13 days, 100=total damage, 0=no damage
Method: as §1

[5] = system: Amaranthus retoflexus (AMARE); test: as above; conditions: Amaranthus retroflexus, 312 h, dose 1,000 g/ha, evaluated after 13 days, 100=total damage, 0=no damage
Method: as §1

[6] = system: Ipomea hederaceae (IPOHE); test: as above; conditions: Ipomoea hederacea, 312 h, dose 1,000 g/ha, evaluated after 13 days, 100=total damage, 0=no damage
Method: as §1

[7] = system: Echinochloa crus-galli (ECHCG); test: Pre-emergence biological efficacy (percentage damage); conditions: Echinochloa crus-galli, 312 h, dose 1,000 g/ha, evaluated after 13 days, 100=total damage, 0=no damage
Method: (§2) Seeds of Alopecurus myosuroides (ALOMY), Setaria faberi (SETFA), Echinochloa crus-galli (ECHCG), Solanum nigrum (SOLNI), Amaranthus retoflexus (AMARE) and Ipomea hederaceae (IPOHE) were sown in standard soil in pots. After cultivation for one day under controlled conditions in a glasshouse (at 24/16° C., day/night; 14 hours light; 65% humidity), the plants were sprayed with an aqueous spray solution derived from the formulation of the technical active ingredient in acetone/water (50:50) solution containing 0.5% Tween 20 (polyoxyethylene sorbitan monolaurate, CAS RN 9005-64-5) to give a final dose of 250 or 1000 g/ha of test compound. The test plants were then grown under controlled conditions in the glasshouse (at 24/16° C., day/night; 14 hours light; 65% humidity) and watered twice daily. After 13 days the test was evaluated (100=total damage to plant; 0=no damage to plant).

Solanum nigrum (SOLNI) [8] = test: as above; conditions: Solanum nigrum, 312 h, dose 1,000 g/ha, evaluated after 13 days, 100=total damage, 0=no damage
Method: as §2

[9] = system: Alopecurus myosuroides (ALOMY); test: as above; conditions: Alopecurus myosuroides, 312 h, dose 1,000 g/ha, evaluated after 13 days, 100=total damage, 0=no damage
Method: as §2

Setaria faberi (SETFA) [10] = test: as above; conditions: Setaria faberi, 312 h, dose 1,000 g/ha, evaluated after 13 days, 100=total damage, 0=no damage
Method: as §2

[11] = system: Amaranthus retoflexus (AMARE); test: as above; conditions: Amaranthus retroflexus, 312 h, dose 1,000 g/ha, evaluated after 13 days, 100=total damage, 0=no damage
Method: as §2

[12] = system: Ipomea hederaceae (IPOHE); test: as above; conditions: Ipomoea hederacea, 312 h, dose 1,000 g/ha, evaluated after 13 days, 100=total damage, 0=no damage
Method: as §2

| SMILES | pest or weed control at 1000 g/ha [1] [%] | pest or weed control at 1000 g/ha (Solanum nigrum (SOLNI) [2]) [%] | pest or weed control at 1000 g/ha [3] [%] | pest or weed control at 1000 g/ha (Setaria faberi (SETFA) [4]) [%] | pest or weed control at 1000 g/ha [5] [%] | pest or weed control at 1000 g/ha [6] [%] | pest or weed control at 1000 g/ha [7] [%] | pest or weed control at 1000 g/ha (Solanum nigrum (SOLNI) [8]) [%] | pest or weed control at 1000 g/ha [9] [%] | pest or weed control at 1000 g/ha (Setaria faberi (SETFA) [10]) [%] | pest or weed control at 1000 g/ha [11] [%] | pest or weed control at 1000 g/ha [12] [%] |
| --- | --- | --- | --- | --- | --- | --- | --- | --- | --- | --- | --- | --- |
| C=Cc1c(N)nc(-c2ccc(Cl)cc2F)nc1C(=O)OC [Compound 15-61, 4-Amino-2-(4-chloro-2-fluorophenyl)-5-ethenyl-6-methoxycarbonyl-pyrimidine] | 70 | 100 | 90 | 70 | 100 | 80 | 70 | 100 | 80 | 70 | 100 | 100 |
| C=Cc1c(N)nc(-c2cc(F)c(Cl)c(F)c2)nc1C(=O)OC [Compound 30-61, 4-Amino-2-(4-chloro-3,5-difluorophenyl)-5-ethenyl-6-methoxycarbonyl-pyrimidine] | 0 | 80 | 0 | 0 | 10 | 10 | 0 | 20 | 0 | 0 | 0 | 0 |
| C=Cc1c(N)nc(-c2ccc(Cl)c(N(C)C)c2F)nc1C(=O)OCC [Compound 33-101, 4-amino-2-(4-chloro-3-dimethylamino-2-fluorophenyl)-5-ethenyl-6-ethoxycarbonyl-pyrimidine] | 90 | 90 | 80 | 80 | 100 | 60 | 90 | 90 | 60 | 90 | 100 | 30 |
| C=Cc1ccc(-c2nc(N)c(C=C)c(C(=O)OC)n2)c(F)c1N(C)C [Compound 64-61, 4-amino-2-(3-dimethylamino-4-ethenyl-2-fluorophenyl)-5-ethenyl-6-methoxycarbonylpyrimidine] | 10 | 60 | 10 | 30 | 100 | 10 | 10 | 10 | 10 | 10 | 30 | 0 |
| C=Cc1c(N)nc(-c2ccc(Cl)c(OC)c2F)nc1C(=O)OC [Compound 27-61, 4-Amino-2-(4-chloro-2-fluoro-3-methoxyphenyl)-5-ethenyl-6-methoxycarbonyl-pyrimidine] | 90 | 80 | 90 | 100 | 100 | 80 | 90 | 100 | 90 | 90 | 100 | 90 |
| C=Cc1c(N)nc(-c2ccc(Cl)c(F)c2)nc1C(=O)OC [Compound 19-61, 4-Amino-2-(4-chloro-3-fluorophenyl)-5-ethenyl-6-methoxycarbonyl-pyrimidine] | 60 | 100 | 40 | 40 | 100 | 100 | 70 | 100 | 50 | 30 | 100 | 100 |
